The record followed here is patent US20100143332A1, “COMBINATION THERAPY FOR PROLIFERATIVE DISORDERS” (Schering Corporation, priority 2006, published 2010).

Experiment [1] concerns γ-H2A.X phosphorylation in U20S cells. As to the kind of experiment: γ-H2A.X phosphorylation by intracellular staining and FACS (marker of double-stranded DNA breaks). Format: cell-based, Human. The protocol:
(§1) Cell lines, drugs, and siRNA treatment materials and methods are as follow. Human U20S osteosarcoma cells are grown in DMEM (Mediatech, Herndon, Va.) supplemented with 10% FBS (JRH BioSciences, St. Louis, Mo.), 200 U/ml penicillin, 200 μg/ml streptomycin, and 300 μg/ml L-Glutamine (Cambrex). HU (Sigma, St. Louis, Mo.) is used at 1 mM for 15 hours.
(§2) Cells are transfected with 50 nM siRNA for Chk1, 100 nM siRNA for Luciferase (Luc), PolA, PolE, PolD1, and ATR duplexes using Lipofectamine 2000 (Invitrogen, Carlsbad, Calif.) according to the manufacturer's protocol.
Flow cytometric analysis, e.g. γ-H2AX detection for DNA damage and BrdU incorporation for cell cycle analysis, is performed as described previously (Cho et al. (2005) Cell Cycle 4:131) and analyzed with a BD LSR II (BD BioSciences, San Jose, Calif.) using FacsDIVA software.

Experiment [2] relates to Chk1 S345 phosphorylation in U20S cells. As to the kind of experiment: Western blot of Chk1 S345 phosphorylation in cell extracts. It is filed as cell-based, Human. The note with it: for Chk1 S345 phosphorylation after antimetabolite treatment: 1 mM HU, 5 μM Gem or 5 μM Ara-C for 2 h, FIG. 1. The protocol:
as §1, §2
(§3) Western blot analysis of siRNA knockdowns is performed as follows. Cell pellets are trypsinized, washed with PBS, and lysed in 2×SDS sample buffer (Invitrogen, Carlsbad, Calif.). Protein extracts are separated by SDS-polyacrylamide gel electrophoresis and transfer to Immobilon®-P membrane (Millipore, Billarica, Mass.). Antibodies used in this study are obtained from Santa Cruz Biotechnology, Inc. (Santa Cruz, Calif.) (Polα, Polε, Polδ, Rad17), Cell Signaling Technology, Inc. (Danvers, Mass.) (pS345-Chk1, pT68-Chk2), Stressgen Bioreagents Corp. (San Diego, Calif.) (Chk1), and Bethyl Laboratories, Inc. (Montgomery, Tex.) (pS33-RPA 32).
U20S cells were untreated (“-”) or treated with 1 mM HU, 5 μM Gem, or 5 μM Ara-C for 2 h. Cell extracts were prepared and immunoblotted with a phospho-Chk1 S345 antibody to show phosphorylated Chk1 (Chk1 S345) and Chk1 (loading control). […] Liu et al. (2000) Genes Dev. 14:1448; Zhao & Piwnica-Worms (2001) Mol. Cell. Biol. 21:4129; Capasso et al. (2002) J. Cell Sci. 115:4555.
At 48 h after siRNA transfections, extracts were prepared and immunoblotted with the indicated antibodies. HU-treated cells were treated with 1 mM HU for 7 h before harvest.

For experiment [3], the system named is Chk1 S345 in Polα complexes, U20S cells. As to the kind of experiment: Time course of Chk1 S345 accumulation in Polα immunoprecipitates. It is filed as cell-based, Human. Conditions: HU for 0.5, 1, 2 and 15 h; first time point tested; FIG. 9. The protocol: Immunoprecipitation is performed as follows. Cell pellets are lysed in LT250 buffer (50 mM Tris-HCl pH 7.4, 250 mM NaCl, 5 mM EDTA, 0.1% NP-40, 10% glycerol, 1 mM DTT, 1:100 dilution of phosphatase inhibitor set I and II, and protease inhibitor cocktail set 111 (Calbiochem, San Diego, Calif.). Protein concentrations are determined using the Bio-Rad Protein Assay (Bio-Rad, Hercules, Calif.). For immunoprecipitation, protein lysates (2 mg) are incubated with anti-Polα (SJK 132-20) antibody cross-linked to ImmunoPure Protein G beads for 4 hours at 4° C. Pab419 monoclonal Ab against SV40 T antigen is typically used as a negative control.
(§4) A time course of HU induction of Chk1 phosphorylation was performed. U20S cells were treated with HU for 0.5, 1, 2 and 15 h, and protein extracts were prepared for immunoprecipitation. Polα was immunoprecipitated with Polα antibodies (SJK132-20) cross-linked to protein G. Western blots were performed using anti-Polα, anti-Chk1, and anti-Chk1 S345 antibodies (FIG. 9). Chk1 phosphorylation was complete at even the earliest timepoint, and both Chk1 and Chk1 S345P co-immunoprecipitated with Polα.

The test system of experiment [4] is RPA32 S33 phosphorylation in U20S cells. As to the kind of experiment: Western blot of RPA32 S33 phosphorylation in cell extracts. The note with it: 1 mM HU 15 h, cells transfected with luciferase (control) siRNA, FIG. 10. Format: cell-based, Human. As for the experimental part: as §1, §2, §3
Cells were tested for Chk1 and RPA32 phosphorylation as a function of depletion of DNA polymerases alone and in combination with depletion of Chk1. […]

Experiment [5] deals with T1, human DNA polymerase alpha (human, UniProt P09884 1-1462).
T1 construct: Endogenous protein in lysates of human U20S osteosarcoma cells; Other subunits of the polymerase alpha complex may have been present in the immune complexes; also called Polα; PolA gene product
T1 sequence: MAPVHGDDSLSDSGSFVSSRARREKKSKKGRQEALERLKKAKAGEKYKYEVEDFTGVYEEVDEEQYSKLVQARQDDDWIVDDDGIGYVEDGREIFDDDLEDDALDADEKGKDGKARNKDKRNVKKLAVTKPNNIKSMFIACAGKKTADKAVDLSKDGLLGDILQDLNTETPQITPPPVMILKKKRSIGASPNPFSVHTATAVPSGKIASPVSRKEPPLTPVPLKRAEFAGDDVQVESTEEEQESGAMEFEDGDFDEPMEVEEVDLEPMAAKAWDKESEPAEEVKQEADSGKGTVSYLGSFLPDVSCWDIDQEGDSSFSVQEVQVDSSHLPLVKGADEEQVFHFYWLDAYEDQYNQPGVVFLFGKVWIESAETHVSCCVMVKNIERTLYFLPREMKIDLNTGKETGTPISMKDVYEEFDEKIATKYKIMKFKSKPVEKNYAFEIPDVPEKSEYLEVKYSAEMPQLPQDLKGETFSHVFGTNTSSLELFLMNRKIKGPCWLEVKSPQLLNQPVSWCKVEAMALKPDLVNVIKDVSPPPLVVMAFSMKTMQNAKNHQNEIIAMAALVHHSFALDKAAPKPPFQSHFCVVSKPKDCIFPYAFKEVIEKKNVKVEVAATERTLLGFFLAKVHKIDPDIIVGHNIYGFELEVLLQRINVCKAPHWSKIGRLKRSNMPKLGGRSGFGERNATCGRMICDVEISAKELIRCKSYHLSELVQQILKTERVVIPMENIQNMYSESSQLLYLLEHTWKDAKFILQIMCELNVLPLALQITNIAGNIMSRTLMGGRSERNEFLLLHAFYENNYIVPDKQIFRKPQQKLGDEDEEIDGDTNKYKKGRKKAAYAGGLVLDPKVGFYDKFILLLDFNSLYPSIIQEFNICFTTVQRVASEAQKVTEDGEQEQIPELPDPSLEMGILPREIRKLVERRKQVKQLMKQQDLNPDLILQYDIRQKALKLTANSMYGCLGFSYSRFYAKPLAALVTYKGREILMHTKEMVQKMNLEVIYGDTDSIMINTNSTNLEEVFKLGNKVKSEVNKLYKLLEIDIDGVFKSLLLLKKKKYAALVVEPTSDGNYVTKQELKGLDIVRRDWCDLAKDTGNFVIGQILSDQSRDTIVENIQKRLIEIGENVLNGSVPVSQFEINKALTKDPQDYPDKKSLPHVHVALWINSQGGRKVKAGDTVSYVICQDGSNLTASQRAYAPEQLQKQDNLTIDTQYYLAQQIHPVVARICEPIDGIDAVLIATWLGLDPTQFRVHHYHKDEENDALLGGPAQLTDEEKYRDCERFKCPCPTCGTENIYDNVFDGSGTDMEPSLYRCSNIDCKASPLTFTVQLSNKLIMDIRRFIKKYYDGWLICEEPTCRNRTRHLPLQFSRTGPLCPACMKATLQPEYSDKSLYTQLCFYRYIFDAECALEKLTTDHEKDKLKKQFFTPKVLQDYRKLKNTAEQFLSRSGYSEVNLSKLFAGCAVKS
As to the kind of experiment: immunoprecipitation with SJK132-20, HU time course, western blot. As for the experimental part: as §4

`COc1ccc(CNC(=O)c2cccc(-c3cnc(N)c(C(=O)N[C@H]4CCCNC4)n3)c2)cc1` [3-amino-6-{3-[({[4-(methyloxy)phenyl]methyl}amino)carbonyl]phenyl}-N-[(3S)-piperidin-3-yl]pyrazine-2-carboxamide]: in experiment [1] (Chk1 inhibitor 2.5 μM, 2 hours, combined with siRNA ablation of PolA, controls less than 1%, FIG. 4B), the “percentage of cells exhibiting substantial double-stranded DNA breaks (γ-H2AX)” value is on record as “over 50%”.

On to `Nc1ccn([C@@H]2O[C@H](CO)[C@@H](O)[C@@H]2O)c(=O)n1` [Ara-C, cytarabine], for which the “Chk1 S345 phosphorylation after antimetabolite treatment” value in experiment [2] is given as “induced substantial phosphorylation of Chk1”.

Turning to `Nc1ccn([C@@H]2O[C@H](CO)[C@@H](O)C2(F)F)c(=O)n1` [Gem, gemcitabine], the “Chk1 S345 phosphorylation after antimetabolite treatment” value in experiment [2] is given as “induced substantial phosphorylation of Chk1”.

As to `NC(=O)NO` [HU, hydroxyurea], in experiment [3], the “time at which Chk1 S345 response in Polα complexes was complete” value is at most 0.5 h. Also, in experiment [4], the “RPA32 phosphorylation in whole cell extracts” value is “low level RPA32 phosphorylation”. The “H2A.X phosphorylation compared to control samples” value in experiment [1] (FIG. 4A, average of three experiments) was “modestly increase”. Also, the “cells exhibiting DNA damage compared with control cultures” value in experiment [1] (FIGS. 2B and 2C, siRNA 48 h, HU 1 mM with control siRNA) is on record as “approximately 10 fold”. The “Chk1 S345 phosphorylation in whole cell extracts” value in experiment [2] (1 mM HU 15 h, cells transfected with luciferase (control) siRNA, FIG. 10) is reported as “strong Chk1 S345 phosphorylation”. Moreover, the “Chk1 S345 phosphorylation after antimetabolite treatment” value in experiment [2] is “induced substantial phosphorylation of Chk1”.

B1: Chk1 S345P (Chk1 phosphorylated at S345) (enzyme)
chain: MAVPFVEDWDLVQTLGEGAYGEVQLAVNRVTEEAVAVKIVDMKRAVDCPENIKKEICINKMLNHENVVKFYGHRREGNIQYLFLEYCSGGELFDRIEPDIGMPEPDAQRFFHQLMAGVVYLHGIGITHRDIKPENLLLDERDNLKISDFGLATVFRYNNRERLLNKMCGTLPYVAPELLKRREFHAEPVDVWSCGIVLTAMLAGELPWDQPSDSCQEYSDWKEKKTYLNPWKKIDSAPLALLHKILVENPSARITIPDIKKDRWYNKPLKKGAKRPRVTSGGVSESPSGFSKHIQSNLDFSPVNSASSEENVKYSSSQPEPRTGLSLWDTSPSYIDKLVQGISFSQPTCPDHMLLNSQLLGTPGSSQNPWQRLVKRMTRFFTKLDADKSYQCLKETCEKLGYQWKKSCMNQVTISTTDRRNNKLIFKVNLLEMDDKILVDFRLSKGDGLEFKRHFLKIKGKLIDIVSSQKVWLPAT
modifications: phosphoserine at 345 (Chk1 S345P)
notes: also called phospho-S345 Chk1; Chk S345P
Consider B1, for which, in experiment [5], the binding result is listed as “binds”.
